Results as given in PubChem BioAssay AID1918999 (Molecular Pharmacology Branch, DTP, NCI, 2023).
Values belong to the compound of their own block, whether it stands above or below them.

Test system: 556581-035-R-J1-PDC complex spheroid growth
Assay: Anticancer human tumor 556581-035-R-J1-PDC patient-derived ovarian carcinoma cell line growth inhibition [AhR]
Conditions: for IC50: curve of first compound; for viability, T/C: stronger effect = lower value
How it was run: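 Spheroids combined tumor cells with HUVEC endothelial cells and human MSCs as stroma. AhR antagonists were paired with standard or investigational drugs, each dosed in half-log steps down from near clinical Cmax, or from 10 microM where Cmax was unknown.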

[1] = second compound 0.1 µM, first compound 0.0316 µM
[2] = second compound 0.1 µM, first compound 0.1 µM
[3] = second compound 0.1 µM, first compound 0.316 µM
[4] = second compound 0.1 µM, first compound 1 µM
[5] = second compound 0.316 µM, first compound 0.0316 µM
[6] = second compound 0.316 µM, first compound 0.1 µM
[7] = second compound 0.316 µM, first compound 0.316 µM
[8] = second compound 0.316 µM, first compound 1 µM
[9] = second compound 1 µM, first compound 0.0316 µM
[10] = second compound 1 µM, first compound 0.1 µM
[11] = second compound 1 µM, first compound 0.316 µM
[12] = second compound 1 µM, first compound 1 µM
[13] = second compound 3.16 µM, first compound 0.0316 µM
[14] = second compound 3.16 µM, first compound 0.1 µM
[15] = second compound 3.16 µM, first compound 0.316 µM
[16] = second compound 3.16 µM, first compound 1 µM
[17] = second compound 10 µM, first compound 0.0316 µM
[18] = second compound 10 µM, first compound 0.1 µM
[19] = second compound 10 µM, first compound 0.316 µM
[20] = second compound 10 µM, first compound 1 µM
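For viability, T/C in this document: compound exposure lasted 7 days; 100% = DMSO vehicle control growth.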

- IC50 (second compound 0.1 µM): 474 nM
- IC50 (second compound 0.316 µM): 690 nM
- IC50 (second compound 1 µM): 944 nM
- IC50 (second compound 3.16 µM): 398 nM
- IC50 (second compound 10 µM): 295 nM
SMILES: CC1COCCN1c1cc(-c2ccnn2C)c2ccnc(-c3ccn[nH]3)c2n1 (stereo not given) + CC(CO)NC(=O)c1cc(-c2ccc(Cl)cc2)nn(-c2cnn(C)c2)c1=O
- viability, T/C (second compound 0.1 µM, first compound 0.00316 µM): 106%
- viability, T/C (second compound 0.1 µM, first compound 0.01 µM): 109%
- viability, T/C [1]: 108%
- viability, T/C [2]: 79.7%
- viability, T/C [3]: 52.4%
- viability, T/C [4]: 47.1%
- viability, T/C (second compound 0.316 µM, first compound 0.00316 µM): 107%
- viability, T/C (second compound 0.316 µM, first compound 0.01 µM): 114%
- viability, T/C [5]: 104%
- viability, T/C [6]: 89.3%
- viability, T/C [7]: 56.3%
- viability, T/C [8]: 47%
- viability, T/C (second compound 1 µM, first compound 0.00316 µM): 118%
- viability, T/C (second compound 1 µM, first compound 0.01 µM): 120%
- viability, T/C [9]: 106%
- viability, T/C [10]: 84.4%
- viability, T/C [11]: 64.6%
- viability, T/C [12]: 48.5%
- viability, T/C (second compound 3.16 µM, first compound 0.00316 µM): 114%
- viability, T/C (second compound 3.16 µM, first compound 0.01 µM): 130%
- viability, T/C [13]: 114%
- viability, T/C [14]: 80.7%
- viability, T/C [15]: 53.6%
- viability, T/C [16]: 43.2%
- viability, T/C (second compound 10 µM, first compound 0.00316 µM): 107%
- viability, T/C (second compound 10 µM, first compound 0.01 µM): 119%
- viability, T/C [17]: 103%
- viability, T/C [18]: 68.6%
- viability, T/C [19]: 50.5%
- viability, T/C [20]: 44.8%

- IC50 (second compound 0.1 µM): > 10000 nM
- IC50 (second compound 0.316 µM): > 10000 nM
- IC50 (second compound 1 µM): > 10000 nM
- IC50 (second compound 3.16 µM): > 10000 nM
- IC50 (second compound 10 µM): > 10000 nM
SMILES: CC1COCCN1c1cc(C2(S(C)(=N)=O)CC2)nc(-c2ccnc3[nH]ccc23)n1 (stereo not given) + CC(CO)NC(=O)c1cc(-c2ccc(Cl)cc2)nn(-c2cnn(C)c2)c1=O
- viability, T/C [1]: 116%
- viability, T/C [2]: 113%
- viability, T/C [3]: 101%
- viability, T/C [4]: 92%
- viability, T/C (second compound 0.1 µM, first compound 3.16 µM): 86.2%
- viability, T/C (second compound 0.1 µM, first compound 10 µM): 69.1%
- viability, T/C [5]: 97.1%
- viability, T/C [6]: 113%
- viability, T/C [7]: 105%
- viability, T/C [8]: 90.1%
- viability, T/C (second compound 0.316 µM, first compound 3.16 µM): 81.4%
- viability, T/C (second compound 0.316 µM, first compound 10 µM): 70.2%
- viability, T/C [9]: 111%
- viability, T/C [10]: 105%
- viability, T/C [11]: 116%
- viability, T/C [12]: 98.2%
- viability, T/C (second compound 1 µM, first compound 3.16 µM): 78.2%
- viability, T/C (second compound 1 µM, first compound 10 µM): 67.6%
- viability, T/C [13]: 105%
- viability, T/C [14]: 104%
- viability, T/C [15]: 107%
- viability, T/C [16]: 89.4%
- viability, T/C (second compound 3.16 µM, first compound 3.16 µM): 83.5%
- viability, T/C (second compound 3.16 µM, first compound 10 µM): 71.8%
- viability, T/C [17]: 118%
- viability, T/C [18]: 119%
- viability, T/C [19]: 110%
- viability, T/C [20]: 101%
- viability, T/C (second compound 10 µM, first compound 3.16 µM): 81.2%
- viability, T/C (second compound 10 µM, first compound 10 µM): 72.5%
